Test results reported in patent US8940697B2, “Compositions and methods for the treatment of myocardial ischemia/reperfusion injury with Annexin A1 short peptide” (Duke University, priority 2009, dated 2015).
Entries after “also recorded” stand apart in the source; their conditions may differ. Marks after values point to notes of the source that are not given here. No end group written: not given here.

Key:
[1] = tested on: adult rat ventricular cardiomyocytes (ARVC); assay: Long-term culture survival of adult rat cardiomyocytes in normal or high glucose; type: cell-based; details: for cardiomyocytes still alive, with rod-shaped morphology: day 26
Source text: Cardiomyocytes isolated from adult rats were exposed to ANXAsp (FIG. 3C and FIG. 3D) or the N-terminal 25mer Ac2-26 (FIG. 3E and FIG. 3F) in either normal glucose (NG) or high glucose (HG), respectively, for 26 days, Untreated control cells in normoglycemic and hyperglycemic media are presented in FIG. 3A and FIG. 3B,
(§1) Cardiomyocytes isolated from adult rat in both normal and hyperglycemic culture media were exposed directly to ANXA1sp. […] The cardioprotective effects of ANXA1sp was further examined in hyperglycemic exacerbation of myocardial injury due to simulated ischemia/reperfusion in vitro. Adult rat ventricular cardiomyocytes (ARVCs) were treated with/without either ANXA1sp or Ac2-26 in both normo- and hyperglycemic culture media for 24 hours. Cells were washed with deoxygenated glucose-free DMEM medium in an anaerobic chamber that filtrated a gas mixture of 5% CO2-10% H2-85% N2 and incubated for 2 hours. After oxygen/glucose deprivation (OGD), cells were cultured under normoxic conditions in a 5% CO2 incubator for 24 hours. Cells without OGD were used as a positive control. Cell death was determined by trypan blue exclusive staining. Cells were counted in triplicate wells and in eight random fields in each well.

[2] = tested on: NIH 3T3 cells; assay: LPS-induced NIH 3T3 cells: NF-κB activity, IL-6, cell death; type: cell-based; details: LPS+peptide vs LPS, 0, 1, 3 and 6 hours
Protocol: FIG. 2A is a graph showing the effect of ANXA1sp on NF-κB activity over time on NIH 3T3 cells activated with LPS alone and LPS+peptide. FIG. 2B is a graph showing the effect of ANXA1sp on interleukin-6 (IL-6) production over time by NIH 3T3 cells activated with LPS alone and LPS+peptide.
The ANXA1sp was next tested in LPS-induced NIH 3T3 cells to determine if NF-κB activity was inhibited. NIH 3T3 cells were exposed to LPS or LPS+ANXA1sp (LPS+Peptide) for 0, 1, 3 and 6 hours. Cell lysates were obtained and levels of NF-κB activity and IL-6 were measured by ELISA. Cell death was also measured by Trypan blue exclusion.

[3] = tested on: male SD rats; assay: Rat CPB/CA model of myocardial I/R injury (normo- and hyperglycemic); type: in vivo; details: for NF-κB activity / IL-6 / TNF-α / Caspase-3 / MPO / Apoptosis / HFABP / cTnI: 3 mg/kg total; for NF-κB activity: myocardial DNA binding activity; for NF-κB activity / IL-6 / TNF-α / Caspase-3 / MPO / Apoptosis / HFABP: 24 h; for IL-6 / TNF-α: myocardial tissue; for Caspase-3 / MPO / Apoptosis: myocardium; for Apoptosis: TUNEL; for HFABP / cTnI: plasma; for cTnI: 24 h post-reperfusion
Protocol: Next, studies were carried out to determine the effectiveness of ANXA1sp on myocardial protection in vivo using a clinically-relevant rodent experimental model of surgical global myocardial ischemia/reperfusion injury. […] Rats were exposed to CPB for 15 minutes before ischemic/reperfusion injury was initiated (i.e., cardioplegic arrest was induced) and maintained for 45 minutes, followed by another 15 minutes of CPB. Animals were weaned from cardiopulmonary bypass and allowed to recover for 24 hours, at which point blood and left ventricular myocardial tissue were harvested for analysis. FIG. 5B is a graph showing the blood glucose levels in rats before and after ischemia. Acute hyperglycemia was induced using dextrose 25% (5 gm/kg) administered preoperatively 0.75 gm intraperitoneally, intraoperatively 0.25 gm in CPB prime and 0.5 gm/hr intravenously, and postoperatively 1 hour after weaning from CPB (intraperitoneally). Perioperative blood glucose levels were maintained at >300 mg/dl. Cardioplegic arrest was induced with cold (4:1) blood cardioplegia. Animals in the AXNA1sp treated group received a total of 3 mg/kg ANXA1sp in 3 equal doses administered before (intraperitoneally), during (intracoronary, mixed with cardioplegia solution), and after CPB (intraperitoneally), respectively. Control animals underwent an identical surgical procedure with vehicle instead of ANXA1sp.
In vivo study: with IACUC approval, male SD rats were randomly assigned to 4 groups in a 2×2 design (n=5/group): normo- and hyperglycemic (20 mM) cardioplegic arrest (CA), each treated with ANXA1sp or vehicle, respectively. All animals underwent 75 min of mild hypothermic CPB (33° C.) with 45 min of CA using blood cardioplegia. Treatment groups received ANXA1sp (Ac-QAW, GenScript, 3 mg/kg total) before (ip), during (with cardioplegia), and after CPB (ip) in equal doses, whereas CA control animals received saline. No animals received insulin. At 24 h post-reperfusion the following efficacy end-points were assessed by investigators blinded to the experimental group: 1) plasma myonecrosis biomarkers—cTnI and HFABP (rat specific ELISA, LifeDiagnostics); 2) myocardial apoptosis—cleaved caspase-3 (immunostaining and Western blot) and TUNEL assays; 3) myocardial inflammation—NF-kB DNA binding activity (ELISA, Panomics) and tissue levels of TNF-α and IL-6 (ELISA, ThermoScientific); and 4) myocardial neutrophil transmigration—myeloperoxidase (MPO) activity (ELISA, ThermoScientific).

[4] = tested on: adult rat ventricular cardiomyocytes (ARVC); assay: ARVC simulated I/R (oxygen-glucose deprivation/reoxygenation); type: cell-based; details: for cTnI: 30 μM ANXA1sp, 2 h OGD + 24 h reoxygenation, supernatant; for HFABP / TNFα / Apoptosis / Cell Death: 30 μM, OGD/reoxygenation; for Apoptosis: ELISA; for Cell Death: trypan blue
Protocol: FIG. 4A. Cells were exposed to normal glucose (NG) (a, e), high glucose (HG) (b, f), HG+ANXA1sp (c, g) and HG+Ac2-26 (d, h), respectively, for 24 hours. Cells (e, f, g, h) were washed with deoxygenated glucose-free DMEM medium in an anaerobic chamber that contained a gas mixture of 5% CO2, 10% H2, and 85% N2 and incubated for 2 hours. After oxygen/glucose deprivation (OGD), ARVC cells were cultured in DMEM medium under normoxic conditions in a 5% CO2 incubator for 24 hours. Cells (a, b, c, d) without OGD were used as a control. Cell death was determined by trypan blue staining. FIG. 4B is a graph of the results obtained in FIG. 4A. Specifically, cells were counted in a total of eight random fields in triplicate wells. Values presented are means±SD; n=8.
as §1
In vitro study: ARVCs from male Sprague-Dawley (SD) rats were incubated in normal or high glucose (25 mM), with and without 30 μM ANXA1sp (Ac-QAW), or with a scrambled peptide (Ac-QWA), respectively for 24 h. Cells were subjected to 2 h oxygen-glucose deprivation (OGD), followed by 24 h reoxygenation in either normo- or hyperglycemic conditions. Cell death was determined histologically (trypan blue exclusion) and biochemically (supernatant levels of cTnI and HFABP, ELISA). Apoptosis was quantified using ELISA (Roche).

[5] = tested on: NF-kB activation in human pancreatic cancer cell lines; assay: NF-kB activation in human pancreatic cancer cell lines by ANXA1 N-terminus short peptides; type: cell-based; details: compared with the other ANXA1 peptides of FIG. 1
Source text: FIG. 1 is a graph showing the effect of ANXA1 N-terminus short peptides Ac-QAW, Ac-KQAW (SEQ ID NO:3), Ac-[…] (SEQ ID NO:10), Ac-FLK, Ac-EFLKQAW (SEQ ID NO:6) and Ac-VSEFLKQAW (SEQ ID NO:9) on NF-kB activation in human pancreatic cancer cell lines. Values presented are means±SD; n=5; *P<0.05 and #P<0.001 vs. control (0). Ac=acetylation.

[6] = tested on: Male Yorkshire pigs; assay: Pig CPB/CA model of myocardial I/R injury; type: in vivo
Protocol: Pig CPB/CA: Male Yorkshire pigs (32-38 kg) were subjected to 120 min of mild hypothermic CPB, including 60 min of CA using 4:1 blood cardioplegia, and received either ANXA1sp (iv after anesthesia induction and with each dose of cardioplegia, 4 mg/kg total, CA_SP group, n=4) or vehicle (CA_CTRL, n=8). Efficacy endpoints and underlying mechanisms were assessed as described herein.

[7] = 4 mg/kg, systemically and in the cardioplegia solution

Substance: Ac-Ala-Met-Val-Ser-Glu-Phe-Leu-Lys-Gln-Ala-Trp-Phe-Ile-Glu-Asn-Glu-Glu-Gln-Glu-Tyr-Val-Gln-Tyr-Val-Lys (Ac-AMVSEFLKQAWFIENEEQEYVQYVK) [Ac2-26, commercial annexin A1 N-terminal 25mer peptide, reference compound]
- rod-shaped cardiomyocytes found ([1]; normal and hyperglycemic media, beyond day 14): no rod-shaped cardiomyocytes were found

Substance: Ac-Gln-Ala-Trp [ANXA1sp]
- apoptosis (cell death, Trypan blue exclusion) [2]: inhibited
- IL-6 ([2]; ELISA): inhibited
- NF-κB activity ([2]; ELISA of cell lysates): inhibited
- NF-κB activity ([3]; CAHG_SP: hyperglycemic): 1.5 ± 0.5 A.U.
- IL-6 ([3]; CAHG_SP: hyperglycemic): 107.3 ± 15.5 ng/mg
- TNF-α ([3]; CAHG_SP: hyperglycemic): 105.6 ± 13.3 ng/mg
- Caspase-3 ([3]; CAHG_SP: hyperglycemic): 5.9 ± 1.4 A.U.
- MPO ([3]; CAHG_SP: hyperglycemic): 467.2 ± 72.4 ng/mg
- Apoptosis ([3]; CAHG_SP: hyperglycemic): 9.5 ± 1.2 %
- HFABP ([3]; CAHG_SP: hyperglycemic): 12.4 ± 2.6 ng/mL
- cTnI ([3]; CAHG_SP: hyperglycemic): 2.1 ± 0.5 ng/mL
- NF-κB activity ([3]; CA_SP: normoglycemic): 0.8 ± 0.04 A.U.
- IL-6 ([3]; CA_SP: normoglycemic): 38.2 ± 8.1 ng/mg
- TNF-α ([3]; CA_SP: normoglycemic): 28.8 ± 6.7 ng/mg
- Caspase-3 ([3]; CA_SP: normoglycemic): 1.9 ± 1.5 A.U.
- MPO ([3]; CA_SP: normoglycemic): 104.8 ± 6.6 ng/mg
- Apoptosis ([3]; CA_SP: normoglycemic): 2.4 ± 1.1 %
- HFABP ([3]; CA_SP: normoglycemic): 1.0 ± 0.3 ng/mL
- cTnI ([3]; CA_SP: normoglycemic): 1.0 ± 0.7 ng/mL
- myocardial apoptosis (TUNEL) ([3]; Example 4: acute hyperglycemia, 3 mg/kg, FIG. 7B, 3 mg/kg): attenuated; also recorded: significantly decreased
- myocardial MPO ([3]; Example 4: acute hyperglycemia, 3 mg/kg, FIG. 8, 3 mg/kg): attenuated; also recorded: significantly decreased
- myocardial NF-κB DNA binding activity ([3]; Example 4: acute hyperglycemia, 3 mg/kg, FIG. 9, 3 mg/kg): attenuated; also recorded: significantly decreased
- myocardial TNF-α ([3]; Example 4: acute hyperglycemia, 3 mg/kg, FIG. 10A, 3 mg/kg): attenuated; also recorded: significantly decreased
- myocardial IL-6 ([3]; Example 4: acute hyperglycemia, 3 mg/kg, FIG. 10B, 3 mg/kg): attenuated; also recorded: significantly decreased
- myocardial caspase-3 activity ([3]; Example 4: acute hyperglycemia, 3 mg/kg, Western blot, FIG. 7A, 3 mg/kg): attenuated; also recorded: significantly decreased
- myonecrosis biomarker HFABP ([3]; Example 4: acute hyperglycemia, 3 mg/kg, vs CAHG, FIG. 6B, 3 mg/kg): attenuated; also recorded: significantly decreased
- hyperglycemic exacerbation of perioperative myocardial injury ([3]; Example 4: cardioplegic arrest and acute hyperglycemia, 3 mg/kg): attenuated
- myonecrosis biomarker cTnI ([3]; Example 4: cardioplegic arrest and acute hyperglycemia, 3 mg/kg, vs CAHG, FIG. 6A, 3 mg/kg): attenuated; also recorded: significantly decreased
- in vivo interaction between ANXA1 and NF-κB p65 subunit ([3]; co-immunoprecipitation and confocal co-localization in cardiomyocytes, FIG. 11): significantly induces; also recorded: strongly induced
- protection of cardiomyocytes from cell death ([1]; both normo- and hyperglycemic conditions): significantly protected cardiomyocytes from cell death
- cardiomyocytes still alive, with rod-shaped morphology ([1]; high glucose): ~50%
- cardioprotective effect compared with Ac2-26 ([1]; long-term culture, normal and high glucose): much stronger than that of the commercial annexin A1 N-terminal peptide, Ac2-26
- cardiomyocytes still alive, with rod-shaped morphology ([1]; normal glucose): about 70%
- cardiomyocyte cell death (trypan blue) ([4]; 24 h pretreatment, 2 h OGD, 24 h normoxia, Example 3): significantly decreased cardiomyocyte cell death
- cTnI ([4]; HG_SP: high glucose (25 mM)): 7.8 ± 0.6 ng/mL
- HFABP ([4]; HG_SP: high glucose (25 mM)): 2.0 ± 0.4 ng/mL
- TNFα ([4]; HG_SP: high glucose (25 mM)): 1.2 ± 0.1 ng/mg protein
- Apoptosis ([4]; HG_SP: high glucose (25 mM)): 0.7 ± 0.2 A.U.
- Cell Death ([4]; HG_SP: high glucose (25 mM)): 40.5 ± 11.1 %
- cTnI ([4]; NG_SP: normal glucose): 5.7 ± 0.4 ng/mL
- HFABP ([4]; NG_SP: normal glucose): 2.4 ± 1.4 ng/mL
- TNFα ([4]; NG_SP: normal glucose): 0.84 ± 0.1 ng/mg protein
- Apoptosis ([4]; NG_SP: normal glucose): 0.7 ± 0.2 A.U.
- Cell Death ([4]; NG_SP: normal glucose): 38.6 ± 5.9 %
- cardioprotective efficacy compared with Ac2-26 ([4]; OGD, high glucose, Example 3, FIG. 4): stronger cardioprotective efficacy than Ac2-26
- inhibiting NF-κB activity [5]: most effective at inhibiting NF-κB activity
- hemodynamics ([6]; 4 mg/kg total): improved hemodynamics
- animals requiring inotropic or vasopressor support ([6]; 4 mg/kg total, support substantial in all control animals): none requiring either inotropic or vasopressor support
- left ventricular dysfunction [6, 7]: significant reduction
- postoperative arrhythmias [6, 7]: significant reduction
- vasoplegia [6, 7]: significant reduction
- Apoptosis ([6]; CA_SP: 4 mg/kg total): 5.9 ± 2.3 %
- Epinephrine (inotropic support required) ([6]; CA_SP: 4 mg/kg total): 0** mcg/6 hs
- Heart Rate ([6]; CA_SP: 4 mg/kg total): 135 ± 18 beats/min
- NF-κB activity ([6]; CA_SP: 4 mg/kg total): 0.8 ± 0.04 A.U.
- SVI (stroke volume index) ([6]; CA_SP: 4 mg/kg total): 36 ± 5 ml/m^2
- TNF-α ([6]; CA_SP: 4 mg/kg total): 28.8 ± 6.7 ng/mg protein
- Vasopressin (vasopressor support required) ([6]; CA_SP: 4 mg/kg total): 0** U/6 hrs
- Caspase-3 ([6]; CA_SP: 4 mg/kg total, iv and with cardioplegia): 137.3 ± 9.8 A.U.
